The test concerns the target T1, CK1.2 (Trypanosoma brucei, UniProt Q57W25).
T1 sequence (Q57W25 1-332): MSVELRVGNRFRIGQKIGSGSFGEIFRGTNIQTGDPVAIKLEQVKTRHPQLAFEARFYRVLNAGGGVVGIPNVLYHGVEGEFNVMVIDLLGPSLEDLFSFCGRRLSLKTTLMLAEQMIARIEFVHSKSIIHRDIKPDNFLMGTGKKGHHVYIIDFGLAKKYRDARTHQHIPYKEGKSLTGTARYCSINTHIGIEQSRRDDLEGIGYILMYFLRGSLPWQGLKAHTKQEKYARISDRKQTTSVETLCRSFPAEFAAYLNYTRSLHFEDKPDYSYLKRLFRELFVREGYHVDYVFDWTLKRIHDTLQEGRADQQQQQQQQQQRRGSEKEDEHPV
The test is classed as biochemical.

The IC50 is the concentration that inhibits the measured activity by half. Read a high IC50 as weaker potency. In the case of `Nc1nccc(-c2c(-c3ccc(F)cc3)ncn2C2CCCCC2)n1` [PF-670462], the IC50 was found to be 29.1 nM.

As for `NC(=O)c1ccc(-c2nc(-c3ccc4c(c3)OCO4)c(-c3ccccn3)[nH]2)cc1` [SB-431542], inhibition was half-maximal at 49.2 nM (IC50).
